Results: patent US20140249143A1, “Compounds And Methods For Enhancing Innate Immune Responses” (GlaxoSmithKline LLC, priority 2011, published 2014)

How the values were obtained:
ISGs and cytokines mRNA = assay: Induction of ISGs in mice in vivo; set-up: species or system Balb/c mice
Experimental: Naive Balb/c mice were purchased from Charles River Laboratories (Wilmington, Mass.) and administered with murine IFNα2 (30 ug/kg) intravenously or administered with oral Example 1 (300 mg/kg in 30/70% solutol/polyethylene glycol 400). The mice were then euthanized by CO2 inhalation at 0.5, 2, 6, 8, and 24 hours for sample collection. Four mice per dose group were tested.
For RNA isolation, the blood was collected in an RNAprotect™ tube (Qiagen) and processed with RNeasy Protect™ animal blood kit (Qiagen) according to the manufacturer's protocol. To preserve RNA, 30-200 mg of tissue pieces were stored in RNAlater™ solution (Invitrogen) until use. For RNA isolation, the thawed tissues were homogenized using a TissueLyser™ system (Qiagen) and processed with RNeasy 96 Universal Tissue Kit™ (Qiagen) according to the manufacturer's protocol. To remove DNA contamination, on-plate DNase digestion was included during the RNA purification.
For real time RT-PCR, cDNA was made using High Capacity cDNA Reverse Transcription Kit™ (Applied Biosystems). Gene expression was measured using TaqMan Fast Universal PCR Master Mix™ (Applied Biosystems) and gene specific probes and murine primers in HT7900 FAST System™ (Invitrogen). As housekeeping genes, actin and GAPDH were used for normalization. Data was calculated by the ΔΔCt method and fold change determined compared to non-treated control samples.

[1] = tested on: ISG56 (Interferon-Stimulated Gene 56) promoter ISRE; assay: ISG56 luciferase reporter assay in HEK 293 cells; type: cell-based; conditions: Homo sapiens, HEK293; HEK 293 reporter, 24 hours; 100% = small molecule control test compound; read-out: ISG56 (Average Max Response) %
Summary of the method: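 HEK 293 cells stably carrying a firefly luciferase reporter driven by the ISG56 promoter ISRE were incubated with compounds (11-point, 3-fold dilutions) for 24 h at 37 °C, 10,000 cells/well. Steady-Glo luminescence was normalized to DMSO and control-agonist wells, and pEC50 came from a four-parameter fit.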

STAT1 phosphorylation = STAT1 phosphorylation immunoblot in HCV replicon cells; type: cell-based
Experimental: IFNα (100 U/ml) and DMSO were included as controls. The total cell lysates were analyzed on a 4-20% SDS-PAGE gradient gel and followed by immunoblotting using anti-phopho STAT1 antibody (Cell Signaling). The level of actin was monitored as a loading control. The bands were visualized by the alkaline phosphatase activity conjugated with the secondary antibody (Promega) using ProtoBlot II AP System™ (Promega).

Compound: FC(F)(F)c1cc(C(F)(F)F)c2ccc3nc(-c4nnco4)cn3c2n1 [Compound 1, 2-[2,4-bis(trifluoromethyl)imidazo[1,2-a]1,8-naphthyridin-8-yl]-1,3,4-oxadiazole]
- up-regulation of ISGs at 24 hours (ISGs and cytokines mRNA; Example 1 oral 300 mg/kg, murine IFNα2 30 ug/kg intravenously): appeared to sustain
- mRNA for Mx1, OAS1A, OAS2, CXCL10, ISG15, and IL6 (ISGs and cytokines mRNA; oral 300 mg/kg, Balb/c mice): marked increase
- Emax [1]: 302%
- time up to which phosphor-STAT1 status sustained (STAT1 phosphorylation; 2 uM): up to 24 h
- STAT1 phosphorylation (STAT1 phosphorylation; Example 1 2 uM, IFNα 100 U/ml, 1 h, 6 h, 24 h): induced STAT1 phosphorylation
